Source: patent publication US9211310B2, “Use of a Chinese medicine composition in preparing medicaments for treating secondary prevention of myocardial infarction” (TASLY PHARMACEUTICAL GROUP CO., LTD, priority 2010, dated 2015)

Tested on: patients after acute myocardial infarction
Assay: Life quality, Seattle Angina Questionnaire (SAQ), same clinical trial
Format: in vivo, human
Conditions: FAS
From the text: 3508 patients who were in accordance with the diagnostic standards of AMI for 28 days to 2 years and differentiated as Qi deficiency and blood stagnation syndrome by TCM were studied. 0.5 g Chinese medicine composition prepared by the method of EXAMPLE 1 (Coded as QSYQ) was administrated half an hour after meal, 3 times per day.
There were 19 questions in the Seattle angina questionnaire (SAQ), including 5 parts: physical limitation (PL), anginal stability (AS), anginal frequency (AF), treatment satisfaction (TS) and disease perception (DP). After being given necessary explanation by doctors, the questions were answered independently by patients.
They included the overall survival time, angina pectoris score, TCM symptom score and life quality score, where angina pectoris score, TCM symptom score and life quality score were evaluated at randomization, in 1st, 3rd, 6th, 9th, 12th month after treatment and 18th month after follow-up.
All evaluation results of SAQ were described during the period of observation, and Wilcoxon rank sum test was used for inter-group comparison.
The evaluation results in the SAQ were depicted in different observations, and inter-group comparison was tested by Wilcoxon Rank-sum test.

CC(=O)Oc1ccccc1C(=O)O [Control group, aspirine]
10th question: Mostly satisfied, patients (%) (Baseline): (16.89%)
10th question: Partly satisfied, patients (%) (Baseline): (31.19%)
11th question: Continuously worried, patients (%) (Baseline): (9.59%)
11th question: No worried, patients (%) (Baseline): (4.13%)
11th question: Occasionally worried, patients (%) (Baseline): (40.93%)
11th question: Often worried, patients (%) (Baseline): (23.88%)
11th question: Seldom worried, patients (%) (Baseline): (21.47%)
SAQ 4th question, 1-2 times per week: % of patients (Baseline): (19.80%)
SAQ 4th question, 1-2 times per week: number of patients (Baseline): 344
SAQ 4th question, 1-3 times per day: % of patients (Baseline): (8.64%)
SAQ 4th question, 1-3 times per day: number of patients (Baseline): 150
SAQ 4th question, <1 time per week: % of patients (Baseline): (10.13%)
SAQ 4th question, <1 time per week: number of patients (Baseline): 176
SAQ 4th question, Not used: % of patients (Baseline): (43.64%)
SAQ 4th question, Not used: number of patients (Baseline): 758
SAQ 4th question, ≧3 times per week: % of patients (Baseline): (16.87%)
SAQ 4th question, ≧3 times per week: number of patients (Baseline): 293
SAQ 4th question, ≧4 times per day: % of patients (Baseline): (0.92%)
SAQ 4th question, ≧4 times per day: number of patients (Baseline): 16
SAQ 5th question, Few: % of patients (Baseline): (18.88%)
SAQ 5th question, Few: number of patients (Baseline): 328
SAQ 5th question, Mild: % of patients (Baseline): (30.74%)
SAQ 5th question, Mild: number of patients (Baseline): 534
SAQ 5th question, Moderate: % of patients (Baseline): (20.50%)
SAQ 5th question, Moderate: number of patients (Baseline): 356
SAQ 5th question, None: % of patients (Baseline): (23.43%)
SAQ 5th question, None: number of patients (Baseline): 407
SAQ 5th question, Not medicated by doctors: % of patients (Baseline): (2.99%)
SAQ 5th question, Not medicated by doctors: number of patients (Baseline): 52
SAQ 5th question, Severe: % of patients (Baseline): (3.45%)
SAQ 5th question, Severe: number of patients (Baseline): 60
SAQ 6th question, Dissatisfied: % of patients (Baseline): (1.15%)
SAQ 6th question, Dissatisfied: number of patients (Baseline): 20
SAQ 6th question, Highly satisfied: % of patients (Baseline): (15.33%)
SAQ 6th question, Highly satisfied: number of patients (Baseline): 267
SAQ 6th question, Mostly dissatisfied: % of patients (Baseline): (6.54%)
SAQ 6th question, Mostly dissatisfied: number of patients (Baseline): 114
SAQ 6th question, Mostly satisfied: % of patients (Baseline): (45.52%)
SAQ 6th question, Mostly satisfied: number of patients (Baseline): 793
SAQ 6th question, Partly satisfied: % of patients (Baseline): (31.46%)
SAQ 6th question, Partly satisfied: number of patients (Baseline): 548
SAQ 7th question, Dissatisfied: % of patients (Baseline): (0.40%)
SAQ 7th question, Dissatisfied: number of patients (Baseline): 7
SAQ 7th question, Highly satisfied: % of patients (Baseline): (20.40%)
SAQ 7th question, Highly satisfied: number of patients (Baseline): 355
SAQ 7th question, Mostly dissatisfied: % of patients (Baseline): (4.60%)
SAQ 7th question, Mostly dissatisfied: number of patients (Baseline): 80
SAQ 7th question, Mostly satisfied: % of patients (Baseline): (47.99%)
SAQ 7th question, Mostly satisfied: number of patients (Baseline): 835
SAQ 7th question, Partly satisfied: % of patients (Baseline): (26.61%)
SAQ 7th question, Partly satisfied: number of patients (Baseline): 463
SAQ Question 1-1 Mildly limited, number of patients (Baseline): 34
SAQ Question 1-1 Mildly limited, percent of patients (Baseline): (1.95%)
SAQ Question 1-1 Moderately limited, number of patients (Baseline): 16
SAQ Question 1-1 Moderately limited, percent of patients (Baseline): (0.92%)
SAQ Question 1-1 Not limited, number of patients (Baseline): 1582
SAQ Question 1-1 Not limited, percent of patients (Baseline): (90.92%)
SAQ Question 1-1 Other reasons, number of patients (Baseline): 5
SAQ Question 1-1 Other reasons, percent of patients (Baseline): (0.29%)
SAQ Question 1-1 Severely limited, number of patients (Baseline): 1
SAQ Question 1-1 Severely limited, percent of patients (Baseline): (0.06%)
SAQ Question 1-1 Slightly limited, number of patients (Baseline): 102
SAQ Question 1-1 Slightly limited, percent of patients (Baseline): (5.86%)
SAQ Question 1-2 Mildly limited, number of patients (Baseline): 46
SAQ Question 1-2 Mildly limited, percent of patients (Baseline): (2.64%)
SAQ Question 1-2 Moderately limited, number of patients (Baseline): 18
SAQ Question 1-2 Moderately limited, percent of patients (Baseline): (1.03%)
SAQ Question 1-2 Not limited, number of patients (Baseline): 1539
SAQ Question 1-2 Not limited, percent of patients (Baseline): (88.45%)
SAQ Question 1-2 Other reasons, number of patients (Baseline): 6
SAQ Question 1-2 Other reasons, percent of patients (Baseline): (0.34%)
SAQ Question 1-2 Severely limited, number of patients (Baseline): 2
SAQ Question 1-2 Severely limited, percent of patients (Baseline): (0.11%)
SAQ Question 1-2 Slightly limited, number of patients (Baseline): 129
SAQ Question 1-2 Slightly limited, percent of patients (Baseline): (7.41%)
SAQ Question 1-6: Mildly limited, patients (%) (Baseline): (20.89%)
SAQ Question 1-6: Moderately limited, patients (%) (Baseline): (17.95%)
SAQ Question 1-6: Not limited, patients (%) (Baseline): (25.85%)
SAQ Question 1-6: Other reasons, patients (%) (Baseline): (0.92%)
SAQ Question 1-6: Severely limited, patients (%) (Baseline): (6.75%)
SAQ Question 1-6: Slightly limited, patients (%) (Baseline): (27.64%)
SAQ Question 1-7: Mildly limited, patients (%) (Baseline): (24.74%)
SAQ Question 1-7: Moderately limited, patients (%) (Baseline): (19.42%)
SAQ Question 1-7: Not limited, patients (%) (Baseline): (10.64%)
SAQ Question 1-7: Other reasons, patients (%) (Baseline): (2.81%)
SAQ Question 1-7: Severely limited, patients (%) (Baseline): (20.94%)
SAQ Question 1-7: Slightly limited, patients (%) (Baseline): (21.46%)
SAQ Question 1-8: Mildly limited, patients (%) (Baseline): (23.63%)
SAQ Question 1-8: Moderately limited, patients (%) (Baseline): (22.57%)
SAQ Question 1-8: Not limited, patients (%) (Baseline): (8.07%)
SAQ Question 1-8: Other reasons, patients (%) (Baseline): (2.40%)
SAQ Question 1-8: Severely limited, patients (%) (Baseline): (25.96%)
SAQ Question 1-8: Slightly limited, patients (%) (Baseline): (17.37%)
8th question: Dissatisfied, patients (%) (Follow-up): (0.07%)
8th question: Highly satisfied, patients (%) (Follow-up): (28.03%)
8th question: Mostly dissatisfied, patients (%) (Follow-up): (0.62%)
8th question: Mostly satisfied, patients (%) (Follow-up): (60.61%)
8th question: Partly satisfied, patients (%) (Follow-up): (10.67%)
9th question: Few, patients (%) (Follow-up): (44.26%)
9th question: Mild, patients (%) (Follow-up): (27.29%)
9th question: Moderate, patients (%) (Follow-up): (3.78%)
9th question: Severe, patients (%) (Follow-up): (0.14%)
9th question: Uneffective, patients (%) (Follow-up): (24.54%)
10th question: Dissatisfied, patients (%) (Follow-up): (18.50%)
10th question: Highly satisfied, patients (%) (Follow-up): (9.56%)
10th question: Mostly dissatisfied, patients (%) (Follow-up): (19.05%)
10th question: Mostly satisfied, patients (%) (Follow-up): (32.12%)
10th question: Partly satisfied, patients (%) (Follow-up): (20.77%)
11th question: Continuously worried, patients (%) (Follow-up): (1.38%)
11th question: No worried, patients (%) (Follow-up): (8.80%)
11th question: Occasionally worried, patients (%) (Follow-up): (38.93%)
11th question: Often worried, patients (%) (Follow-up): (6.74%)
11th question: Seldom worried, patients (%) (Follow-up): (44.15%)
SAQ 4th question, 1-2 times per week: % of patients (Follow-up): (13.28%)
SAQ 4th question, 1-2 times per week: number of patients (Follow-up): 192
SAQ 4th question, 1-3 times per week: % of patients (Follow-up): (2.84%)
SAQ 4th question, 1-3 times per week: number of patients (Follow-up): 41
SAQ 4th question, <1 time per week: % of patients (Follow-up): (16.04%)
SAQ 4th question, <1 time per week: number of patients (Follow-up): 232
SAQ 4th question, Not used: % of patients (Follow-up): (66.04%)
SAQ 4th question, Not used: number of patients (Follow-up): 955
SAQ 4th question, ≧3 times per week: % of patients (Follow-up): (1.80%)
SAQ 4th question, ≧3 times per week: number of patients (Follow-up): 26
SAQ 4th question, ≧4 times per day: % of patients (Follow-up): (0.00%)
SAQ 4th question, ≧4 times per day: number of patients (Follow-up): 0
SAQ 5th question, 1-2 times per week: % of patients (Follow-up): (32.97%)
SAQ 5th question, 1-2 times per week: number of patients (Follow-up): 478
SAQ 5th question, 1-3 times per day: % of patients (Follow-up): (3.17%)
SAQ 5th question, 1-3 times per day: number of patients (Follow-up): 46
SAQ 5th question, <1 time per week: % of patients (Follow-up): (31.17%)
SAQ 5th question, <1 time per week: number of patients (Follow-up): 452
SAQ 5th question, No onset: % of patients (Follow-up): (7.52%)
SAQ 5th question, No onset: number of patients (Follow-up): 109
SAQ 5th question, ≧3 times per week: % of patients (Follow-up): (25.03%)
SAQ 5th question, ≧3 times per week: number of patients (Follow-up): 363
SAQ 5th question, ≧4 times per day: % of patients (Follow-up): (0.14%)
SAQ 5th question, ≧4 times per day: number of patients (Follow-up): 2
SAQ 6th question, Dissatisfied: % of patients (Follow-up): (0.00%)
SAQ 6th question, Dissatisfied: number of patients (Follow-up): 0
SAQ 6th question, Highly satisfied: % of patients (Follow-up): (28.18%)
SAQ 6th question, Highly satisfied: number of patients (Follow-up): 410
SAQ 6th question, Mostly dissatisfied: % of patients (Follow-up): (0.62%)
SAQ 6th question, Mostly dissatisfied: number of patients (Follow-up): 9
SAQ 6th question, Mostly satisfied: % of patients (Follow-up): (62.75%)
SAQ 6th question, Mostly satisfied: number of patients (Follow-up): 913
SAQ 6th question, Partly satisfied: % of patients (Follow-up): (8.45%)
SAQ 6th question, Partly satisfied: number of patients (Follow-up): 123
SAQ 7th question, Dissatisfied: % of patients (Follow-up): (0.00%)
SAQ 7th question, Dissatisfied: number of patients (Follow-up): 0
SAQ 7th question, Highly satisfied: % of patients (Follow-up): (30.56%)
SAQ 7th question, Highly satisfied: number of patients (Follow-up): 444
SAQ 7th question, Mostly dissatisfied: % of patients (Follow-up): (0.28%)
SAQ 7th question, Mostly dissatisfied: number of patients (Follow-up): 4
SAQ 7th question, Mostly satisfied: % of patients (Follow-up): (62.49%)
